The molecules below were run against T1, human topoisomerase II α (Homo sapiens, UniProt P11388) (assay: Topoisomerase II ATPase assay (Malachite Green)). Details: not given.
T1 construct: purchased Professor Neil Osheroff (Vanderbilt University, Nashville, Tenn., USA)
Type: biochemical
Procedure: The inhibition of topoisomerase II is measured as follows:
Purified human topoisomerase II α was purchased from Professor Neil Osheroff (Vanderbilt University—Nashville, Tenn., USA).
The pUC18 (Stratagene) plasmid was introduced into Escherichia coil XL-1 (Stratagene) and purified with the HiSpeed Plasmid Purification kit (Qiagen) according to the manufacturer instructions. The purity of the DNA preparations was evaluated spectrophotometrically (OD260/OD280 ratio) and by agarose gel.
Preparation of the Malachite Green Reagent:
Three volumes of 0.045% malachite green (Sigma, catalog no. M-9636) diluted in water are mixed for 20 min at room temperature with one volume of 4.2% ammonium molybdate (Axon Lab AG, catalog no. A-2246) diluted in 4 N HCl. After mixing, Triton X-100 (Merck, catalog no. 1.12298) is added to a final concentration of 0.01%. The solution is filtered at 0.2 μm and stored at room temperature in the dark.
ATP hydrolysis was monitored by measuring the production of inorganic phosphate released during the catalytic cycle of topoisomerase II α with acidic molybdate and malachite green (Lanzetta,et al., An improved assay for nanomole amounts of inorganic phosphate, Anal Biochem 1979;100:95-7). Briefly, human topoisomerase II α is pre-incubated at 37° C. for 10 min in 90 μl reaction buffer (10 mM Tris.HCl pH 7.9, 175 mM KCl, 1 mM EDTA, 2 mM DTT, 5 mM MgCl2, 2.5% glycerol) in the presence of the indicated amount of pUC18 and DMSO in F96 maxisorp Nunclmmuno plates (Nunc). The reaction is initiated by the addition of 10 μl ATP at the indicated concentrations and is carried out for 30 min at 37° C. under constant agitation. The reaction is stopped by the addition of 200 μl molybdate/malachite green solution and the absorbance is immediately measured at 630 nm. The OD630 value is measured in the absence of protein for each ATP concentration (background) is subtracted from the value obtained in the presence of enzyme. A standard curve with inorganic phosphate is used to determine the amount of inorganic phosphate produced during the reaction and to ensure that the measures are in the linear range of the assay. The kinetic parameters of the enzymes are determined from measurements (at least in duplicate) of the initial rates at different ATP concentrations. The data are analyzed with GraFit (Erithacus Software).
The compounds are tested at 10 μM of concentration to determine their inhibition potential given % of inhibition of the TOPO II ATPase activity.
For the determination of the IC50, the procedure is repeated for different concentrations of test compound selected to cover the range of 0% to 100% inhibition and the concentration at which 50% inhibition of topoisomerase II occurs (IC50) for each compound is determined from concentration-inhibition curves in a conventional manner.

T1 sequence (P11388 whole entry): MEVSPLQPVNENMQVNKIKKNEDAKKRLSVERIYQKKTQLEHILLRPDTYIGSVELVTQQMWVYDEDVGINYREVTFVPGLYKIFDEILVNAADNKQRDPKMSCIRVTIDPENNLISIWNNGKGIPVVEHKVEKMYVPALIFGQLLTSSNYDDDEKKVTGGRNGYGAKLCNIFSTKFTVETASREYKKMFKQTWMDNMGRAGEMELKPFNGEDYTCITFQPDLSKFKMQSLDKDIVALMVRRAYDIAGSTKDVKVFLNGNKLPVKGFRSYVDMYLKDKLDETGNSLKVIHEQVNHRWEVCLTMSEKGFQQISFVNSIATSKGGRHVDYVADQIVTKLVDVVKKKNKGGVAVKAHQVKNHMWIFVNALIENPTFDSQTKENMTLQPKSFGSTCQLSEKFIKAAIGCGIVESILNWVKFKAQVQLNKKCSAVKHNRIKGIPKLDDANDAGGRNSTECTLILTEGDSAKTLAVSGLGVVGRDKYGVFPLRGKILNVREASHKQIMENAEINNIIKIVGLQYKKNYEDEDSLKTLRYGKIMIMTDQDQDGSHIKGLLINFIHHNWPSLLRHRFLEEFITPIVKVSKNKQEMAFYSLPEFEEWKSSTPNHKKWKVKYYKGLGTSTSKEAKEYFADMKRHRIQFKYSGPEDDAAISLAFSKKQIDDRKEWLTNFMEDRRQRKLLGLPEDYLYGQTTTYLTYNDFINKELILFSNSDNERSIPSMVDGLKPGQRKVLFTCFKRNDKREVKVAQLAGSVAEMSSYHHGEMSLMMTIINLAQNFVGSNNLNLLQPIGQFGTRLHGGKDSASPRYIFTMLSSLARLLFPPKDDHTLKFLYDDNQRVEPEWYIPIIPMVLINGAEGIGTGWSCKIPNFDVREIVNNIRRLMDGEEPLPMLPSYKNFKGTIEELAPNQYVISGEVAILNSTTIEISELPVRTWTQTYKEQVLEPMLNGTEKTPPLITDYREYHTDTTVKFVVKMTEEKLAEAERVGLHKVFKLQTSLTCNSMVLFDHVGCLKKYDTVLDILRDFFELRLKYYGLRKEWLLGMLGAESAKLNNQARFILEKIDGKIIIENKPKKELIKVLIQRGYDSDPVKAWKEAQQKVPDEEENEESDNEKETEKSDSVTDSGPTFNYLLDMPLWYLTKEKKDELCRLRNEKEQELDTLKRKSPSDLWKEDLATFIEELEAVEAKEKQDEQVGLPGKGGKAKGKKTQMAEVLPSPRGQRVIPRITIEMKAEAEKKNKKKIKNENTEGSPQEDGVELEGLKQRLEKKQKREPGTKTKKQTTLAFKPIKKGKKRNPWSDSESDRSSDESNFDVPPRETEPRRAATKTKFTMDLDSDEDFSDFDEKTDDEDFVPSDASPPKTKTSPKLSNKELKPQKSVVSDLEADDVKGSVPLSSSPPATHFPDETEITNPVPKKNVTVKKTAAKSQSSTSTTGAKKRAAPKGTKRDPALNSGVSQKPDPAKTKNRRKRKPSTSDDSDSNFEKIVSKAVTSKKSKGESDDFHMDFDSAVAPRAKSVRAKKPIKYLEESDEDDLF

IC50 [nM] | Compound
8400 | c1nc2c(NC3CCCCCC3)nc(Nc3ccc4ncsc4c3)nc2[nH]1 [Example 1, N*2*-Benzothiazol-6-yl-N*6*-cycloheptyl-9H-purine-2,6-diamine]
2800 | CCc1nc2c(NC(C)(C)C)nc(Nc3ccc4oc(=O)ccc4c3)nc2[nH]1 [Example 35, 6-(6-tert-Butylamino-8-ethyl-9H-purin-2-ylamino)-chromen-2-one]
1800 | CC(C)(C)Nc1nc(Nc2ccc3cc(OCCN4CCOCC4)ccc3c2)nc2[nH]cnc12 [Example 22, N*6*-tert-Butyl-N*2*-[6-(2-morpholin-4-yl-ethoxy)-naphthalen-2-yl]-9H-purine-2,6-diamine]

Same assay, conditions: OD measured at 630 nm

ATP competitive inhibitor activity | Compound
ATP competitive inhibitor | c1nc2c(NC3CCCCCC3)nc(Nc3ccc4ncsc4c3)nc2[nH]1 [Example 1, N*2*-Benzothiazol-6-yl-N*6*-cycloheptyl-9H-purine-2,6-diamine]

Same assay, conditions: Percent inhibition @10 μM, Malachite Green assay; read-out: TOPO II inh. (inhibition of the TOPO ATPase activity)

Compound | inhibition at 10 µM [%]
Cc1nc2cc(Nc3nc(NC(C)(C)C)c4nc[nH]c4n3)ccc2s1 [Example 17, N*6*-tert-Butyl-N*2*-(2-methyl-benzothiazol-5-yl)-9H-purine-2,6-diamine] | < 50
CC(C)(C)Nc1nc(Nc2ccc3[nH]ccc3c2)nc2[nH]cnc12 [Example 24, N*6*-tert-Butyl-N*2*-(1H-indol-5-yl)-9H-purine-2,6-diamine] | < 50
CC(C)(C)Nc1nc(Nc2ccc3ncsc3c2)nc2[nH]c(C3CCCC3)nc12 [Example 34, N*2*-Benzothiazol-6-yl-N*6*-tert-butyl-8-cyclopentyl-9H-purine-2,6-diamine] | < 50
Cc1nc2ccc(Nc3nc(NC(C)(C)C)c4nc[nH]c4n3)cc2s1 [Example 19, N*6*-tert-Butyl-N*2*-(2-methyl-benzothiazol-6-yl)-9H-purine-2,6-diamine] | 50 to 65
c1csc(-c2ccc(Nc3nc(NC4CCCCCC4)c4nc[nH]c4n3)cc2)n1 [Example 2, N*6*-Cycloheptyl-N*2*-(4-thiazol-2-yl-phenyl)-9H-purine-2,6-diamine] | < 50
c1ccc(C(Nc2nc(Nc3ccc4ncsc4c3)nc3[nH]cnc23)c2ccccc2)cc1 [Example 11, N*6*-Benzhydryl-N*2*-benzothiazol-6-yl-9H-purine-2,6-diamine] | < 50
Cc1cc2cc(Nc3nc(NC(C)(C)C)c4nc[nH]c4n3)ccc2[nH]1 [Example 23, N*6*-tert-Butyl-N*2*-(2-methyl-1H-indol-5-yl)-9H-purine-2,6-diamine] | < 50
CC(C)(C)Nc1nc(Nc2ccc3cc(OCCN4CCOCC4)ccc3c2)nc2[nH]cnc12 [Example 22, N*6*-tert-Butyl-N*2*-[6-(2-morpholin-4-yl-ethoxy)-naphthalen-2-yl]-9H-purine-2,6-diamine] | ≥ 80
CC(C)(C)Nc1nc(Nc2ccc3nc(C(C)(C)C)sc3c2)nc2[nH]cnc12 [Example 18, N*6*-tert-Butyl-N*2*-(2-tert-butyl-benzothiazol-6-yl)-9H-purine-2,6-diamine] | 65 to 80
COc1cccc(Nc2nc(Nc3ccc4ncsc4c3)nc3[nH]cnc23)c1 [Example 8, N*2*-Benzothiazol-6-yl-N*6*-(3-methoxy-phenyl)-9H-purine-2,6-diamine] | < 50
CCc1nc2c(NC(C)CC(N)=O)nc(Nc3ccc4ncsc4c3)nc2[nH]1 (stereo not shown) [Example 30, 3-[2-(Benzothiazol-6-ylamino)-8-ethyl-9H-purin-6-ylamino]-butyramide] | 0
Cc1nc2c(NC3CCCCCC3)nc(Nc3ccc4ncsc4c3)nc2[nH]1 [Example 26, N*2*-Benzothiazol-6-yl-N*6*-cycloheptyl-8-methyl-9H-purine-2,6-diamine] | < 50
CCOC(=O)CC(C)Nc1nc(Nc2ccc3ncsc3c2)nc2[nH]c(CC)nc12 (stereo not shown) [Example 31, 3-[2-(Benzothiazol-6-ylamino)-8-ethyl-9H-purin-6-ylamino]-butyric acid ethyl ester] | < 50

Second part, the molecule after the results:

inhibition at 10 µM [%] | Compound
< 50 | c1nc2c(NC3CCCCCC3)nc(Nc3ccc4nsnc4c3)nc2[nH]1 [Example 49, N*2*-Benzo[1,2,5]thiadiazol-5-yl-N*6*-cycloheptyl-9H-purine-2,6-diamine]
< 50 | CC(C)(Cc1ccc(F)cc1)Nc1nc(Nc2ccc3nsnc3c2)nc2[nH]cnc12 [Example 57, N*2*-Benzo[1,2,5]thiadiazol-5-yl-N*6*-[2-(4-fluoro-phenyl)-1,1-dimethyl-ethyl]-9H-purine-2,6-diamine]
< 50 | CCC(C)(C)Nc1nc(Nc2ccc3nc(C)sc3c2)nc2[nH]cnc12 [Example 54, N*6*-(1,1-Dimethyl-propyl)-N*2*-(2-methyl-benzothiazol-6-yl)-9H-purine-2,6-diamine]
< 50 | Cc1nc2c(NC(C)(C)C)nc(Nc3ccc4ccccc4c3)nc2[nH]1 [Example 72, N*6*-tert-Butyl-8-methyl-N*2*-naphthalen-2-yl-9H-purine-2,6-diamine]
50 to 65 | Cc1nc2ccc(Nc3nc(NC4CCCCCC4)c4nc[nH]c4n3)cc2s1 [Example 50, N*6*-Cycloheptyl-N*2*-(2-methyl-benzothiazol-6-yl)-9H-purine-2,6-diamine]
< 50 | Cc1nc2ccc(Nc3nc(N4CCN(c5ccccn5)CC4)c4nc[nH]c4n3)cc2s1 [Example 63, (2-Methyl-benzothiazol-6-yl)-[6-(4-pyridin-2-yl-piperazin-1-yl)-9H-purin-2-yl]-amine]
50 to 65 | CCC(C)(C)Nc1nc(Nc2ccc3ncsc3c2)nc2[nH]cnc12 [Example 51, N*2*-Benzothiazol-6-yl-N*6*-(1,1-dimethyl-propyl)-9H-purine-2,6-diamine]
< 50 | C=Cc1nc2c(NC(C)(C)C)nc(Nc3ccc4ccccc4c3)nc2[nH]1 [Example 70, N*6*-tert-Butyl-N*2*-naphthalen-2-yl-8-vinyl-9H-purine-2,6-diamine]
< 50 | CC(C)(Cc1ccc(F)cc1)Nc1nc(Nc2ccc3ncccc3c2)nc2[nH]cnc12 [Example 56, N*6*-[2-(4-Fluoro-phenyl)-1,1-dimethyl-ethyl]-N*2*-quinolin-6-yl-9H-purine-2,6-diamine]
< 50 | CC(C)Cc1nc2c(NC(C)(C)C)nc(Nc3ccc4ccccc4c3)nc2[nH]1 [Example 74, N*6*-tert-Butyl-8-isobutyl-N*2*-naphthalen-2-yl-9H-purine-2,6-diamine]
< 50 | CC(=O)c1nc2c(NC(C)(C)C)nc(Nc3ccc4ncsc4c3)nc2[nH]1 [Example 45, 1-[2-(Benzothiazol-6-ylamino)-6-tert-butylamino-9H-purin-8-yl]-ethanone]
65 to 80 | CC(C)(C)Nc1nc(Nc2ccc3ncsc3c2)nc2[nH]c(N)nc12 [Example 42, N*2*-Benzothiazol-6-yl-N*6*-tert-butyl-9H-purine-2,6,8-triamine]
65 to 80 | CCc1nc2c(NC(C)(C)C)nc(Nc3ccc4oc(=O)ccc4c3)nc2[nH]1 [Example 35, 6-(6-tert-Butylamino-8-ethyl-9H-purin-2-ylamino)-chromen-2-one]
< 50 | c1cncc(N2CCN(c3nc(Nc4ccc5ncsc5c4)nc4[nH]cnc34)CC2)c1 [Example 59, Benzothiazol-6-yl-[6-(4-pyridin-3-yl-piperazin-1-yl)-9H-purin-2-yl]-amine]
< 50 | c1cnc2ccc(Nc3nc(N4CCN(c5cnccn5)CC4)c4nc[nH]c4n3)cc2c1 [Example 64, Quinolin-6-yl-[6-(2,3,5,6-tetrahydro-[1,2′]bipyrazinyl-4-yl)-9H-purin-2-yl]-amine]
65 to 80 | CC(C)(C)Nc1nc(Nc2ccc3ncsc3c2)nc2[nH]c(C3CC3)nc12 [Example 41, N*2*-Benzothiazol-6-yl-N*6*-tert-butyl-8-cyclopropyl-9H-purine-2,6-diamine]
65 to 80 | CNc1nc2c(NC(C)(C)C)nc(Nc3ccc4ccccc4c3)nc2[nH]1 [Example 44, N*6*-tert-Butyl-N*8*-methyl-N*2*-naphthalen-2-yl-9H-purine-2,6,8-triamine]
65 to 80 | CC(C)(C)Nc1nc(Nc2ccc3ccccc3c2)nc2[nH]c(N)nc12 [Example 43, N*6*-tert-Butyl-N*2*-naphthalen-2-yl-9H-purine-2,6,8-triamine]
50 to 65 | CC(C)(C)Nc1nc(Nc2ccc3ncccc3c2)nc2[nH]cnc12 [Example 46, N*6*-tert-Butyl-N*2*-quinolin-6-yl-9H-purine-2,6-diamine]
50 to 65 | CC(C)(C)Nc1nc(Nc2ccc3ccccc3c2)nc2[nH]c(Br)nc12 [Example 69, 8-Bromo-N*6*-tert-butyl-N*2*-naphthalen-2-yl-9H-purine-2,6-diamine]

Reference: patent publication US20070249639A1, “Use of 9H-Purine-2,6-Diamine Derivatives in the Treatment of Proliferative Diseases and Novel 9H-Purine-2,6-Diamine Derivatives” (priority 2004, published 2007)
